Where “and” joins values, the source holds several entries; their conditions need not be identical. Equal entries are not always repeated. Structures can show the parent of a compound that is named as a salt. Where two headings read alike, the source gives them in different places. Bridge positions count the residues as written; N and C are the ends. Square brackets hold non-standard residues; d marks the D form. Peptide text beside a SMILES is read from it. Dab = NCC[C@H](N)C(=O)O
Assays:
E. coli ATCC 9637 [1] = experiment: microbe, parasite or virus in culture
Description: (§1) An equal volume of a suspension of either E. coli ATCC 9637 (FIG. 6A) or S. aureus ATCC 13709 (FIG. 6B) in 2× Mueller-Hinton broth was added using an automated liquid dispensing system to a 384 well plate, and bacterial growth was measured by absorptimetry as described in Materials and Methods.
(§2) In this example, E. coli strain 9637 and S. aureus strain 13709 were procured from ATCC (Manassas, Va.). For IM permeability assays, E. coli ML-35 (ATCC 43827), a lactose permease-deficient strain with constitutive cytoplasmic β-galactosidase activity was used (26). Calcium chloride transformation of E. coli ML-35 was performed using the plasmid vector pBR322 (6), encoding tetracycline and ampicillin resistance genes (Promega, Madison, Wis.). The transformed strain, E. coli ML-35p, selected by ampicillin resistance, was utilized for the OM permeabilization assay. E. coli ML-35p was maintained on trypticase soy agar plates with 50 μg/ml of ampicillin.
(§3) Minimum inhibitory concentrations of the acylpolyamines were determined by broth microdilution method (1) as per NCCLS guidelines. Mid-log phase Mueller-Hinton broth (MHB; non-cation supplemented) cultures of organisms (40 μl; OD600nm adjusted to 0.5 AU, and diluted ten-fold) were added to equal volumes of two-fold serially diluted acylpolyamines in a 384-well microtiter plate with the help of a Biotek Precision 2000 automated microplate pipetting system. The MICs of rifampicin, polymyxin B (PMB), polymyxin B nonapeptide (PMBN), naphthylacetyl spermine trihydrochloride and methoctramine tetrahydrochloride (Sigma, St. Louis, Mo.) were included as reference compounds for comparison of activity. The microtiter plates were sealed and incubated overnight at 37° C. The plates were read at an absorbance of 600 nm. The lowest concentration of an agent inhibiting growth of the organisms was recorded as the MIC.

S. aureus ATCC 13709 = experiment: microbe, parasite or virus in culture
Description: as §1, §2, §3

E. coli ATCC 9637 [2] = experiment: Effect of acylpolyamines on MIC of rifampicin (sensitization); type: cell-based, Escherichia coli; details: for Sensitization to Rifampin: E. coli strain 9637 preincubated with 10 μM of compound, MIC of rifampicin
Description: E. coli ATCC 9637 was seeded in MH broth in chequerboard format in a 384-well plate containing a constant concentration of compound and varying doses of rifampicin. Bacterial growth was monitored by turbidimetry at 600 nm. PMBN and melittin were used as positive controls. Wells containing no test-compound served as negative control. […] Fold sensitization was calculated as MICRifampicin alone/MICRifampicin+10μM Compound.
Perturbation of the outer membrane permeability barrier greatly sensitizes Gram negative organisms to otherwise impermeable hydrophobic solutes, rifampicin being a classic example To determine the effect of acylpolyamines on the MIC of hydrophobic antibiotic, rifampicin, E. coli strain 9637 was used. Overnight cultures of E. coli grown in MHB preincubated with 10 μM of acylpolyamines were added to serially diluted rifampicin in a 384-well microtiter plate. After incubation at 37° C. overnight, the MIC was determined. Controls included PMBN and melittin (positive) and rifampicin alone (negative). All experiments were run in triplicate.

E. coli W3110 = details: cited from earlier work
CF-1 mice = details: preliminary; for subacute toxicity: 100 μg/mouse, subcutaneously, for 15 days; for acute toxicity: up to 1 mg/mouse, one dose subcutaneously
Description: Detailed biophysical studies on the characterization of the binding site on albumin, stoichiometry, and dependence of binding affinity on mono-versus bis-acylation and acyl chain length will be published elsewhere.
Clinical signs of acute toxicity were monitored for 48 h following a single injection. In subacute studies, 100 μg of 4e was injected daily in the subcutaneous tissue of the flank region, the sites being alternated every day, for a duration of 15 days. The animals were monitored daily for signs of local irritation, weight loss, and food consumption.

[3] = 500 μM in 50 mM Tris buffer, pH 7.4, 5% DMSO, 25° C.
Description: Charged, amphipathic molecules are surface-active, and can be cytolytic to mammalian cells. […] Samples were at 500 μM concentration in 50 mM Tris buffer, pH 7.4 containing 5% DMSO. The instrument was calibrated with water at 25° C. (72 mN/m) and surface tension values were recorded over a range of bubble surface ages from 100 to 1500 ms at 25° C.

[4] = test system: E. coli ML-35p (OM) / E. coli ML-35 (IM); type: cell-based, Escherichia coli; details: nitrocefin and ONPG hydrolysis
Description: OM permeabilizing activity was determined using E. coli ML-35p (parent i^− z^+ y^− ATCC 43827 transformed with pBR322 vector encoding periplasmic β-lactamase); the leakage of periplasmic β-lactamase activity was quantified using nitrocefin as a chromogenic substrate. IM permeabilizing activity was determined using E. coli ML-35 using o-nitrophenyl-β-D-galactopyranoside as the substrate to determine the β-galactosidase activity. In all experiments, PMB, PMBN, and melittin were used as reference compounds.
Nitrocefin (Calbiochem, San Diego, Calif.) was used for the determination of periplasmic β-lactamase activity since PADAC has been reported to be frequently insensitive to β-lactamase activity in clinically relevant strains of Staphylococcus. […] Harvested mid-log phase cultures of E. coli ML-35p (OD600nm adjusted to 0.5 AU) grown in trypticase soy broth were washed thrice with normal saline (0.9%). Nitrocefin was added to a final concentration of 50 μg/ml to the washed bacterial suspension, which was then added to the serially diluted compounds in a 384-well microtiter plate as described earlier. […] After various times of incubation at 37° C., β-lactamase activity was measured spectrophotometrically at 486 nm using an automated Spectramax M2 instrument (Molecular Devices, Sunnyvale, Calif.).
The IM permeability was measured using o-nitrophenyl-β-D-galactopyranoside (“ONPG”; Sigma, St. Louis, Mo.) as the substrate to determine the β-galactosidase activity. […] Washed cultures of E coli ML-35 mixed with 1.5 mM of ONPG in normal saline (0.9%) were added to serially diluted compounds in a 384-well microtiter plate. PMBN and melittin were used as the controls. The production of o-nitrophenol was quantified absorptimetrically at 420 nm after an incubation period of 1 hour at 37° C.
OM and IM permeability were determined respectively from dose-response curves of nitrocefin and ONPG hydrolysis rates as described in Lehrer et al., Concurrent assessment of inner and outer membrane permeabilization and bacteriolysis in E. coli by multiple-wavelength spectrophotometry, J. Immunol.

human erythrocytes = details: for hemolytic activity in the presence of human serum albumin: physiological concentrations (~650 μM) of human serum albumin
Description: Melittin was used as a positive control.
Erythrocyte damage was measured using two different techniques. In the first, hemolysis was quantified using extremely diluted, aged human whole blood such that the effects of the compounds binding to plasma proteins would be negligible, and the hemolytic activity would be magnified because of increased osmotic fragility of the erythrocytes as a consequence of depleted Na^+ K^+ ATPase activity. […] Dilute erythrocyte suspensions were prepared by diluting one-week-old whole blood obtained by venipuncture from healthy human volunteers 1:1000 in isotonic (0.9 g/100 ml) saline solution to which was added graded doses of compound. […] The samples were therefore examined with a Beckman-Coulter Vi-Cell™ Cell Viability Analyzer (Beckman-Coulter, Hialeah, Fla.). This instrument implements an automated intravital trypan blue exclusion method using real-time automated video microscopy. Measurement parameters for erythrocytes were gated appropriately on control erythrocytes to specify thresholds of cell recognition and viability. Data on total number of cells/ml and viable cells/ml were collected through 50 captured images per sample with a counting accuracy of ±3%. In order to examine the effect of plasma proteins on the surface activity, some of the experiments were repeated in the presence of near-physiological concentrations of human serum albumin. […] The second method, consequently, was designed to examine the effects of the compounds on whole blood. […] After incubation at 37° C. for 30 min, the plates were centrifuged at 3000 RPM for 10 min, 80 μl of supernatants transferred to a fresh plate, and the amount of free hemoglobin released into the supernatant was quantified using absorptimetry at 570 nm.
The hemolysis induced by the compounds was quantified using an extremely dilute suspension of washed, aged human erythrocytes under protein-free conditions (isotonic saline). […]

[5] = E. coli ATCC 9637, Mueller-Hinton broth, overnight 37° C.
[6] = S. aureus ATCC 13709, Mueller-Hinton broth, overnight 37° C.
[7] = 10 μM compound, E. coli ATCC 9637

Row | Compound | MIC (E. coli ATCC 9637 [1]; [5]) | MIC (S. aureus ATCC 13709; [6]) | Sensitization to Rifampin (E. coli ATCC 9637 [2]) | also measured
1 | Polymyxin B [PMB, reference compound] | 3.9 μM and 5.4 μg/ml | 125 μM and 173.2 μg/ml | 0.2 | –
2 | Cl.Cl.Cl.NCCCNCCCCNCCCNC(=O)Cc1cccc2ccccc12 [Naphthylacetylspermine, naphthylacetyl spermine trihydrochloride, reference compound] | – | – | – | MIC (E. coli ATCC 9637 [1]; E. coli ATCC 9637, Mueller-Hinton broth, overnight 37° C., listed as naphthylacetylspermine, trihydrochloride): 1250 µM; MIC (E. coli ATCC 9637 [1]; E. coli ATCC 9637, Mueller-Hinton broth, overnight 37° C., trihydrochloride): 1250 μM and 599.8 μg/ml; MIC (S. aureus ATCC 13709; S. aureus ATCC 13709, Mueller-Hinton broth, overnight 37° C., trihydrochloride): 1250 μM and 599.8 μg/ml; MIC reported by Yasuda et al. (E. coli W3110; trihydrochloride): > 267 μM and > 128 mg/l
3 | CCCCCCCCC(=O)NCCCNCCCNCCCCNCCCNCCCNC(=O)CCCCCCCC.O=C(O)C(F)(F)F.O=C(O)C(F)(F)F.O=C(O)C(F)(F)F.O=C(O)C(F)(F)F [Compound 8a] | 31.25 μM and 32.9 μg/ml | 15.6 μM and 16.4 μg/ml | 0.00381 | sensitization activity (MIC rifampicin alone / MIC rifampicin + 10 μM compound) (E. coli ATCC 9637 [2]; [7]): 4096 fold; subacute toxicity (CF-1 mice): not revealed any detectable toxicity; acute toxicity (CF-1 mice): not revealed any detectable toxicity; surface activity [3]: considerably surface active
4 | CCCCCCCCCCCCCCCCCCC(=O)NCCCNCCCNCCCCNCCCN.O=C(O)C(F)(F)F.O=C(O)C(F)(F)F.O=C(O)C(F)(F)F.O=C(O)C(F)(F)F [Compound 4g] | 62.5 μM and 62.2 μg/ml | 15.6 μM and 15.5 μg/ml | – | membrane-permeabilizing activity (OM and IM) [4]: highly membrane-active; hemolytic activity in the presence of human serum albumin (human erythrocytes): completely abrogated
5 | CCCCCCCCCCCCCCCCC(=O)NCCCNCCCNCCCCNCCCNCCCNC(=O)CCCCCCCCCCCCCCCC.O=C(O)C(F)(F)F.O=C(O)C(F)(F)F.O=C(O)C(F)(F)F.O=C(O)C(F)(F)F [Compound 8e] | 62.5 μM and 79.4 μg/ml | 250 μM and 319.3 μg/ml | 15.6 | –
6 | CO[C@H]1/C=C/O[C@@]2(C)Oc3c(C)c(O)c4c(O)c(c(/C=N/N5CCN(C)CC5)c(O)c4c3C2=O)NC(=O)/C(C)=C\C=C\[C@H](C)[C@H](O)[C@@H](C)[C@@H](O)[C@@H](C)[C@H](OC(C)=O)[C@@H]1C [rifampicin, reference compound] | – | – | – | MIC (E. coli ATCC 9637 [2]; Escherichia coli, ATCC9637, E. coli ATCC 9637, no test compound, read-out: MIC of rifampicin alone): 15.6 µg/mL
7 | CC(=O)NCCCNCCCNCCCCNCCCN.O=C(O)C(F)(F)F.O=C(O)C(F)(F)F.O=C(O)C(F)(F)F.O=C(O)C(F)(F)F [Compound 4a] | 62.5 μM and 47.3 μg/ml | – | 31.25 | –
8 | CCCCCCCCCCCCCCCCC(=O)NCCCNCCCNCCCCNCCCN.O=C(O)C(F)(F)F.O=C(O)C(F)(F)F.O=C(O)C(F)(F)F.O=C(O)C(F)(F)F [Compound 4f] | 62.5 μM and 60.4 μg/ml | 15.6 μM and 15.1 μg/ml | 15.6 | membrane-permeabilizing activity (OM and IM) [4]: highly membrane-active; hemolysis (human erythrocytes; at 1-5 μM, dilute aged human erythrocytes, protein-free isotonic saline): 100%; hemolytic activity in the presence of human serum albumin (human erythrocytes): completely abrogated
9 | COc1ccccc1CNCCCCCCNCCCCCCCCNCCCCCCNCc1ccccc1OC [Methoctramine, methoctramine tetrahydrochloride, reference compound] | 312.5 µM | – | – | MIC (E. coli ATCC 9637 [1]; Escherichia coli, ATCC9637): 312 µM and 228 µg/mL; MIC (S. aureus ATCC 13709; Staphylococcus aureus, ATCC13709): 156 µM and 114 µg/mL; MIC reported by Yasuda et al. (E. coli W3110): 22 μM and 16 mg/l
10 | CCCCCCCCCC(=O)NCCCNCCCNCCCCNCCCNCCCNC(=O)CCCCCCCCC.O=C(O)C(F)(F)F.O=C(O)C(F)(F)F.O=C(O)C(F)(F)F.O=C(O)C(F)(F)F [Compound 8b] | – | – | 0.00381 | MIC in the presence of human serum albumin (E. coli ATCC 9637 [1]; E. coli, HSA 4.5 g/100 ml, 677 μM): 125 µM; attenuation of MIC by human serum albumin (E. coli ATCC 9637 [1]; E. coli, with vs without HSA 4.5 g/100 ml): four-fold; MIC in the presence of human serum albumin (S. aureus ATCC 13709; S. aureus, HSA 4.5 g/100 ml, 677 μM): 15.6 µM; attenuation of MIC by human serum albumin (S. aureus ATCC 13709; S. aureus, with vs without HSA 4.5 g/100 ml): four-fold; sensitization activity (MIC rifampicin alone / MIC rifampicin + 10 μM compound) (E. coli ATCC 9637 [2]; [7]): 4096 fold; surface activity [3]: considerably surface active
11 | CCCCCCCCCCCCCCCCCCC(=O)NCCCNCCCNCCCCNCCCNCCCNC(=O)CCCCCCCCCCCCCCCCCC.O=C(O)C(F)(F)F.O=C(O)C(F)(F)F.O=C(O)C(F)(F)F.O=C(O)C(F)(F)F [Compound 8f] | 62.5 μM and 83.3 μg/ml | 125 μM and 166.7 μg/ml | 15.6 | –
12 | CC(C)C[C@@H]1NC(=O)[C@@H](Cc2ccccc2)NC(=O)[C@H](CCN)NC(=O)[C@@H](NC(=O)[C@H](CCN)NC(=O)[C@@H](N)[C@@H](C)O)CCNC(=O)[C@H]([C@@H](C)O)NC(=O)[C@H](CCN)NC(=O)[C@H](CCN)NC1=O [PMBN, polymyxin B nonapeptide, reference compound] (H-T[Dab][Dab][Dab][dF]L[Dab][Dab]T; lactam 3-C) | 250; (240.7) μg/ml | 500; (481.5) μg/ml | – | MIC (E. coli ATCC 9637 [1]; ATCC 9637): 250; (240.7) μM; MIC (S. aureus ATCC 13709; ATCC 13709): 500; (481.5) μM; MIC of rifampicin in the presence of compound (E. coli ATCC 9637 [2]; [7]): 0.976 µg/mL; sensitization activity (MIC rifampicin alone / MIC rifampicin + 10 μM compound) (E. coli ATCC 9637 [2]; [7]): 16 fold
13 | CCCCCCCCCCCCC(=O)NCCCNCCCNCCCCNCCCN.O=C(O)C(F)(F)F.O=C(O)C(F)(F)F.O=C(O)C(F)(F)F.O=C(O)C(F)(F)F [Compound 4d] | 31.25 μM and 28.9 μg/ml | 15.6 μM and 14.4 μg/ml | 62.5 | subacute toxicity (CF-1 mice): not revealed any detectable toxicity; acute toxicity (CF-1 mice): not revealed any detectable toxicity
14 | CCCCCCCCCC(=O)NCCCNCCCNCCCCNCCCN.O=C(O)C(F)(F)F.O=C(O)C(F)(F)F.O=C(O)C(F)(F)F.O=C(O)C(F)(F)F [Compound 4c] | 62.5 μM and 54.3 μg/ml | 62.5 μM and 54.3 μg/ml | 7.81 | –
15 | CCCCCCCCC(=O)NCCCNCCCNCCCCNCCCN.O=C(O)C(F)(F)F.O=C(O)C(F)(F)F.O=C(O)C(F)(F)F.O=C(O)C(F)(F)F [Compound 4b] | 62.5 μM and 53.4 μg/ml | 125 μM and 106.96 μg/ml | 7.81 | –
16 | CCCCCCCCCCCCCCC(=O)NCCCNCCCNCCCCNCCCNCCCNC(=O)CCCCCCCCCCCCCC.O=C(O)C(F)(F)F.O=C(O)C(F)(F)F.O=C(O)C(F)(F)F.O=C(O)C(F)(F)F [Compound 8d] | 62.5 μM and 76.3 μg/ml | 250 μM and 305.3 μg/ml | 15.6 | –

Source: patent US20070197658A1, “Polyamines and their use as antibacterial and sensitizing agents” (priority 2006, published 2007)
